# Source: patent publication US11692227B2, “Method for screening for skin whitening agent by using SDF1 promoter region” (AJOU UNIVERSITY INDUSTRY-ACADEMIC COOPERATION FOUNDATION, priority 2018, dated 2023)
# Test system: SDF1 promoter
# Assay: Screening of pigment regulators using SDF1 promoter (pGF1 reporter fibroblast cell line, Luciferase assay)
# Assay type: cell-based
# Conditions: fibroblasts infected with SDF1 promoter pGF1 vector virus; 1 ug TPA; 1 ug and 10 ug retinoic acid; 24 hours after treatment
# Description: In order to express the SDF1 promoter gene, the SDF1 promoter gene was inserted into pGF1-vector to construct the SDF1 promoter GFP vector. In order to produce the virus into which the constructed vector was inserted, a virus production system of lentivirus was used. PVSV-G (SystemBiosciences, USA) encoding the required structural protein, the pGF1 vector into which the SDF1 promoter gene was inserted, and pGag-pol were simultaneously co-transfected into HEK-293TN cells by a liposome method. After 6 hours, the medium was replaced with a new medium, cultured for 48 hours, and the medium containing the virus was harvested, and the harvested virus was used for fibroblasts infection. As for the infected fibroblasts, only cells infected by Puromycin were selected for the experiment.
# In order to confirm the expression of the prepared SDF1 promoter, Luciferase assay, an experiment that can confirm the level of GFP, was conducted to observe the expression level.
# Cells were cultured in 12 well plates in an amount of 1×10^3, and after 24 hours, 1 ug of TPA, 10 ng and 100 ng of EGF, and 1 ug and 10 ug of retinoic acid were treated, respectively. 24 hours after treatment with the drug, the activity of GFP was measured through Luciferase assay.
compound,measurement,value
CCCCCCCCCCCCCC(=O)O[C@@H]1[C@@H](C)[C@@]2(O)[C@@H](C=C(CO)C[C@]3(O)C(=O)C(C)=C[C@@H]23)[C@@H]2C(C)(C)[C@]12OC(C)=O [TPA],SDF1 promoter activity (activity of GFP measured through Luciferase assay),decreased
